Reference: ChEMBL document CHEMBL3286152, “Development of a fluorometric microplate antiadhesion assay using uropathogenic Escherichia coli and human uroepithelial cells” (J Nat Prod, 2014)
Values after ≈ are worked out from the molar mass of the structure shown. Active and inactive are the calls of the source. The rule behind the calls is not given here.

Key:
Escherichia coli [1] = assay: Inhibition of BacLight Green labeled Escherichia coli adherence to human UEC at 0.1 ug/ml after 1 hr by flow cytometry analysis; type: functional, organism-based
Escherichia coli [2] = assay: Inhibition of BacLight Green labeled Escherichia coli adherence to human UEC after 1 hr by flow cytometry analysis; type: functional, organism-based
Escherichia coli [3] = assay: Bactericidal activity against BacLight Green labeled Escherichia coli up to 30 ug/ml; type: ADME, organism-based
Escherichia coli [4] = assay: Inhibition of BacLight Green labeled Escherichia coli adherence to human UEC at 10 ug/ml after 1 hr by scanning electron microscopy analysis; type: functional, organism-based
Escherichia coli [5] = assay: Induction of morphological changes in BacLight Green labeled Escherichia coli assessed as alteration of fimbriae structure and distribution by fusing fimbriae at 10 ug/ml after 1 hr by transmission electron microscopy analysis; type: functional, organism-based
Escherichia coli [6] = assay: Inhibition of BacLight Green labeled Escherichia coli adherence to human UEC at 1 ug/ml after 1 hr by flow cytometry analysis; type: functional, organism-based
Escherichia coli [7] = assay: Inhibition of BacLight Green labeled Escherichia coli adherence to human UEC at 50 ug/ml after 1 hr by scanning electron microscopy analysis; type: functional, organism-based
Escherichia coli [8] = assay: Induction of morphological changes in BacLight Green labeled Escherichia coli assessed as decrease of number of fimbriae at 50 ug/ml after 1 hr by transmission electron microscopy analysis; type: functional, organism-based

SMILES	inhibition (Escherichia coli [1])	IC50 (Escherichia coli [2]) [µg/mL]	inhibition (Escherichia coli [2])	Activity (Escherichia coli [3])	inhibition (Escherichia coli [4])	Activity (Escherichia coli [5])	inhibition (Escherichia coli [6])	inhibition (Escherichia coli [7])	Activity (Escherichia coli [8])
O=c1c(O)c(-c2ccc(O)c(O)c2)oc2cc(O)cc(O)c12 [QUERCETIN]	Active	3.8 (≈ 12.6 µM)	Dose-dependent effect	Non-toxic					
Oc1cc(O)c2c(c1)O[C@@]1(c3ccc(O)c(O)c3)Oc3cc(O)c4c(c3[C@@H]2[C@H]1O)O[C@H](c1ccc(O)c(O)c1)[C@H](O)C4 [PROANTHOCYANIDIN A2]			inactive	Non-toxic					
O=C(/C=C/c1ccc(O)c(O)c1)O[C@@H]1C[C@](O)(C(=O)O)C[C@@H](O)[C@H]1O [CHLOROGENIC ACID]			inactive	Non-toxic					
O=c1c(O)c(-c2cc(O)c(O)c(O)c2)oc2cc(O)cc(O)c12 [MYRICETIN]	Active	0.88 (≈ 2.77 µM)	Dose-dependent effect	Non-toxic	Active	Active			
Oc1cc(O)c2c(c1)O[C@H](c1ccc(O)c(O)c1)[C@H](O)[C@H]2c1c(O)cc(O)c2c1O[C@H](c1ccc(O)c(O)c1)[C@H](O)[C@H]2c1c(O)cc(O)c2c1O[C@H](c1ccc(O)c(O)c1)[C@H](O)C2 [PROCYANIDIN C1]			Dose-dependent effect	Non-toxic			Active		
Oc1cc(O)c2c(c1)O[C@H](c1ccc(O)c(O)c1)[C@H](O)[C@H]2c1c(O)cc(O)c2c1O[C@H](c1ccc(O)c(O)c1)[C@H](O)C2 [PROCYANIDIN B2]			Dose-dependent effect	Non-toxic			Active	Active	Active
Oc1cc(O)c2c(c1)O[C@H](c1ccc(O)c(O)c1)[C@H](O)[C@H]2c1c(O)cc(O)c2c1O[C@H](c1ccc(O)c(O)c1)[C@@H](O)C2 [PROCYANIDIN B1]			Dose-dependent effect	Non-toxic			Active		
